{
  "source": "patent US20210353593A1",
  "about": "(Chinook Therapeutics, Inc., priority 2019, published 2021)",
  "tested_on": "hallmark gene sets in kidney tissue of g-ddY mice",
  "test": "Gene Set Enrichment Analysis (GSEA) of hallmark gene sets, g-ddY mouse kidney RNA-seq",
  "type": "in vivo",
  "data": [
    {"molecule": "CCCCN(CCCC)C(=O)CN1C[C@H](c2ccc3c(c2)OCO3)[C@@H](C(=O)O)[C@@H]1c1ccc(OC)cc1", "note": "[Atrasentan, (2R,3R,4S)-4-(1,3-benzodioxol-5-yl)-1-[2-(dibutylamino)-2-oxoethyl]-2-(4-methoxyphenyl)pyrrolidine-3-carboxylic acid]", "values": [
      {"measurement": "HALLMARK_ADIPOGENESIS NES", "setting": "10 mg/kg/day vs. control", "value": 2.15},
      {"measurement": "HALLMARK_ALLOGRAFT_REJECTION NES", "setting": "10 mg/kg/day vs. control", "value": "−2.25"},
      {"measurement": "HALLMARK_ANDROGEN_RESPONSE NES", "setting": "10 mg/kg/day vs. control", "value": 0.88},
      {"measurement": "HALLMARK_ANGIOGENESIS NES", "setting": "10 mg/kg/day vs. control", "value": "−1.94"},
      {"measurement": "HALLMARK_APICAL_JUNCTION NES", "setting": "10 mg/kg/day vs. control", "value": "−1.79"},
      {"measurement": "HALLMARK_APICAL_SURFACE NES", "setting": "10 mg/kg/day vs. control", "value": "−1.52"},
      {"measurement": "HALLMARK_APOPTOSIS NES", "setting": "10 mg/kg/day vs. control", "value": "−1.59"},
      {"measurement": "HALLMARK_BILE_ACID_METABOLISM NES", "setting": "10 mg/kg/day vs. control", "value": 2.08},
      {"measurement": "HALLMARK_CHOLESTEROL_HOMEOSTASIS NES", "setting": "10 mg/kg/day vs. control", "value": 1.03},
      {"measurement": "HALLMARK_COAGULATION NES", "setting": "10 mg/kg/day vs. control", "value": "−1.53"},
      {"measurement": "HALLMARK_COMPLEMENT NES", "setting": "10 mg/kg/day vs. control", "value": "−1.51"},
      {"measurement": "HALLMARK_DNA_REPAIR NES", "setting": "10 mg/kg/day vs. control", "value": 0.79},
      {"measurement": "HALLMARK_E2F_TARGETS NES", "setting": "10 mg/kg/day vs. control", "value": "−2.07"},
      {"measurement": "HALLMARK_EPITHELIAL_MESENCHYMAL_TRANSITION NES", "setting": "10 mg/kg/day vs. control", "value": "−2.47"},
      {"measurement": "HALLMARK_ESTROGEN_RESPONSE_EARLY NES", "setting": "10 mg/kg/day vs. control", "value": "−1.27"},
      {"measurement": "HALLMARK_ESTROGEN_RESPONSE_LATE NES", "setting": "10 mg/kg/day vs. control", "value": "−1.18"},
      {"measurement": "HALLMARK_FATTY_ACID_METABOLISM NES", "setting": "10 mg/kg/day vs. control", "value": 2.25},
      {"measurement": "HALLMARK_G2M_CHECKPOINT NES", "setting": "10 mg/kg/day vs. control", "value": "−2.15"},
      {"measurement": "HALLMARK_GLYCOLYSIS NES", "setting": "10 mg/kg/day vs. control", "value": 1.62},
      {"measurement": "HALLMARK_HEDGEHOG_SIGNALING NES", "setting": "10 mg/kg/day vs. control", "value": "−1.51"},
      {"measurement": "HALLMARK_HEME_METABOLISM NES", "setting": "10 mg/kg/day vs. control", "value": 1.57},
      {"measurement": "HALLMARK_HYPOXIA NES", "setting": "10 mg/kg/day vs. control", "value": "−1.38"},
      {"measurement": "HALLMARK_IL2_STAT5_SIGNALING NES", "setting": "10 mg/kg/day vs. control", "value": "−1.77"},
      {"measurement": "HALLMARK_IL6_JAK_STAT3_SIGNALING NES", "setting": "10 mg/kg/day vs. control", "value": "−2.34"},
      {"measurement": "HALLMARK_INFLAMMATORY_RESPONSE NES", "setting": "10 mg/kg/day vs. control", "value": "−2.34"},
      {"measurement": "HALLMARK_INTERFERON_ALPHA_RESPONSE NES", "setting": "10 mg/kg/day vs. control", "value": "−1.96"},
      {"measurement": "HALLMARK_INTERFERON_GAMMA_RESPONSE NES", "setting": "10 mg/kg/day vs. control", "value": "−2.26"},
      {"measurement": "HALLMARK_KRAS_SIGNALING_DN NES", "setting": "10 mg/kg/day vs. control", "value": 1.28},
      {"measurement": "HALLMARK_KRAS_SIGNALING_UP NES", "setting": "10 mg/kg/day vs. control", "value": "−2.24"},
      {"measurement": "HALLMARK_M ITOTIC_SPINDLE NES", "setting": "10 mg/kg/day vs. control", "value": "−1.55"},
      {"measurement": "HALLMARK_MTORC1_SIGNALING NES", "setting": "10 mg/kg/day vs. control", "value": 1.11},
      {"measurement": "HALLMARK_MYC_TARGETS_V1 NES", "setting": "10 mg/kg/day vs. control", "value": "−1.17"},
      {"measurement": "HALLMARK_MYC_TARGETS_V2 NES", "setting": "10 mg/kg/day vs. control", "value": "−0.780"},
      {"measurement": "HALLMARK_MYOGENESIS NES", "setting": "10 mg/kg/day vs. control", "value": "−1.19"},
      {"measurement": "HALLMARK_NOTCH_SIGNALING NES", "setting": "10 mg/kg/day vs. control", "value": 0.83},
      {"measurement": "HALLMARK_OXIDATIVE_PHOSPHORYLATION NES", "setting": "10 mg/kg/day vs. control", "value": 3.06},
      {"measurement": "HALLMARK_P53_PATHWAY NES", "setting": "10 mg/kg/day vs. control", "value": "−1.12"},
      {"measurement": "HALLMARK_PANCREAS_BETA_CELLS NES", "setting": "10 mg/kg/day vs. control", "value": 0.85},
      {"measurement": "HALLMARK_PEROXISOME NES", "setting": "10 mg/kg/day vs. control", "value": 1.68},
      {"measurement": "HALLMARK_PI3K_AKT_MTOR SIGNALING NES", "setting": "10 mg/kg/day vs. control", "value": "−0.92"},
      {"measurement": "HALLMARK_PROTEIN_SECRETION NES", "setting": "10 mg/kg/day vs. control", "value": 1.06},
      {"measurement": "HALLMARK_REACTIVE_OXYGEN_SPECIES_PATHWAY NES", "setting": "10 mg/kg/day vs. control", "value": 1.59},
      {"measurement": "HALLMARK_SPERMATOGENESIS NES", "setting": "10 mg/kg/day vs. control", "value": 0.89},
      {"measurement": "HALLMARK_TGF_BETA_SIGNALING NES", "setting": "10 mg/kg/day vs. control", "value": "−1.72"},
      {"measurement": "HALLMARK_TNFA_SIGNALING_VIA_NFKB NES", "setting": "10 mg/kg/day vs. control", "value": "−2.55"},
      {"measurement": "HALLMARK_UNFOLDED_PROTEIN_RESPONSE NES", "setting": "10 mg/kg/day vs. control", "value": "−0.91"},
      {"measurement": "HALLMARK_UV_RESPONSE_DN NES", "setting": "10 mg/kg/day vs. control", "value": "−2.19"},
      {"measurement": "HALLMARK_UV_RESPONSE_UP NES", "setting": "10 mg/kg/day vs. control", "value": 1.28},
      {"measurement": "HALLMARK_WNT_BETA_CATENIN_SIGNALING NES", "setting": "10 mg/kg/day vs. control", "value": "−1.02"},
      {"measurement": "HALLMARK_XENOBIOTIC_METABOLISM NES", "setting": "10 mg/kg/day vs. control", "value": 1.95},
      {"measurement": "HALLMARK_ADIPOGENESIS NES", "setting": "20 mg/kg/day vs. control", "value": 2.26},
      {"measurement": "HALLMARK_ALLOGRAFT_REJECTION NES", "setting": "20 mg/kg/day vs. control", "value": "−2.90"},
      {"measurement": "HALLMARK_ANDROGEN_RESPONSE NES", "setting": "20 mg/kg/day vs. control", "value": 1.03},
      {"measurement": "HALLMARK_ANGIOGENESIS NES", "setting": "20 mg/kg/day vs. control", "value": "−2.19"},
      {"measurement": "HALLMARK_APICAL_JUNCTION NES", "setting": "20 mg/kg/day vs. control", "value": "−2.24"},
      {"measurement": "HALLMARK_APICAL_SURFACE NES", "setting": "20 mg/kg/day vs. control", "value": "−1.67"},
      {"measurement": "HALLMARK_APOPTOSIS NES", "setting": "20 mg/kg/day vs. control", "value": "−2.17"},
      {"measurement": "HALLMARK_BILE_ACID_METABOLISM NES", "setting": "20 mg/kg/day vs. control", "value": 2.39},
      {"measurement": "HALLMARK_CHOLESTEROL_HOMEOSTASIS NES", "setting": "20 mg/kg/day vs. control", "value": "−1.03"},
      {"measurement": "HALLMARK_COAGULATION NES", "setting": "20 mg/kg/day vs. control", "value": "−2.11"},
      {"measurement": "HALLMARK_COMPLEMENT NES", "setting": "20 mg/kg/day vs. control", "value": "−2.01"},
      {"measurement": "HALLMARK_DNA_REPAIR NES", "setting": "20 mg/kg/day vs. control", "value": 0.83},
      {"measurement": "HALLMARK_E2F_TARGETS NES", "setting": "20 mg/kg/day vs. control", "value": "−2.34"},
      {"measurement": "HALLMARK_EPITHELIAL_MESENCHYMAL_TRANSITION NES", "setting": "20 mg/kg/day vs. control", "value": "−2.92"},
      {"measurement": "HALLMARK_ESTROGEN_RESPONSE_EARLY NES", "setting": "20 mg/kg/day vs. control", "value": "−1.52"},
      {"measurement": "HALLMARK_ESTROGEN_RESPONSE_LATE NES", "setting": "20 mg/kg/day vs. control", "value": "−1.37"},
      {"measurement": "HALLMARK_FATTY_ACID_METABOLISM NES", "setting": "20 mg/kg/day vs. control", "value": 2.51},
      {"measurement": "HALLMARK_G2M_CHECKPOINT NES", "setting": "20 mg/kg/day vs. control", "value": "−2.26"},
      {"measurement": "HALLMARK_GLYCOLYSIS NES", "setting": "20 mg/kg/day vs. control", "value": 1.53},
      {"measurement": "HALLMARK_HEDGEHOG_SIGNALING NES", "setting": "20 mg/kg/day vs. control", "value": "−1.72"},
      {"measurement": "HALLMARK_HEME_METABOLISM NES", "setting": "20 mg/kg/day vs. control", "value": 1.92},
      {"measurement": "HALLMARK_HYPOXIA NES", "setting": "20 mg/kg/day vs. control", "value": "−1.62"},
      {"measurement": "HALLMARK_IL2_STAT5_SIGNALING NES", "setting": "20 mg/kg/day vs. control", "value": "−2.20"},
      {"measurement": "HALLMARK_IL6_JAK_STAT3_SIGNALING NES", "setting": "20 mg/kg/day vs. control", "value": "−2.92"},
      {"measurement": "HALLMARK_INFLAMMATORY_RESPONSE NES", "setting": "20 mg/kg/day vs. control", "value": "−2.96"},
      {"measurement": "HALLMARK_INTERFERON_ALPHA_RESPONSE NES", "setting": "20 mg/kg/day vs. control", "value": "−2.44"}
    ]}
  ]
}
